Source: patent US10329302B2, “Bicyclic-fused heteroaryl or aryl compounds” (Pfizer Inc., priority 2014, dated 2019)
Where two headings read alike, the source gives them in different places.

Key:
[1] = tested on: R848-induced TNFα production by human peripheral blood mononuclear cells (PBMCs); assay: R848 Induced TNFα in Human PBMC Assay; type: cell-based; conditions: Homo sapiens, PBMC, 3 h, read-out: R848-induced TNFa PBMC IC50 (nM)
Text: R848 Induced TNFα in Human PBMC Assay.
This protocol is for R848-induced TNFα production by human peripheral blood mononuclear cells (PBMCs). […] The assay is used to assess cell-based potency of small molecule inhibitors of IRAK4 in the absence of serum.
The PBMCs in the interphase layer were collected and washed with PBS via centrifugation multiple times until the supernatant is clear. The purified PBMCs were re-suspended in RPMI (Roswell Park Memorial Institute) media (Sigma-Aldrich).
For the assay, a compound dilution plate containing a top concentration of 4 mM compound in DMSO was serially diluted 4-fold for 11 times. 250 nL of the compound dilution plate was spotted into a 384-well, flat bottom with lid, TC-treated, black with clear bottom, sterile, polystyrene plate (Corning Life Sciences).
10 μL of anti-TNFα antibody labeled with MSD SULFO-TAG at 50 μg/mL was added to each well and allowed to incubate overnight at 4° C.

[2] = target: human IRAK4 FL (Full Length) (Homo sapiens (Human), UniProt Q9NWZ3); assay: IRAK4 Enzymatic DELFIA Assay, Protocol A; type: biochemical
human IRAK4 FL (Full Length), sequence (Q9NWZ3 whole entry): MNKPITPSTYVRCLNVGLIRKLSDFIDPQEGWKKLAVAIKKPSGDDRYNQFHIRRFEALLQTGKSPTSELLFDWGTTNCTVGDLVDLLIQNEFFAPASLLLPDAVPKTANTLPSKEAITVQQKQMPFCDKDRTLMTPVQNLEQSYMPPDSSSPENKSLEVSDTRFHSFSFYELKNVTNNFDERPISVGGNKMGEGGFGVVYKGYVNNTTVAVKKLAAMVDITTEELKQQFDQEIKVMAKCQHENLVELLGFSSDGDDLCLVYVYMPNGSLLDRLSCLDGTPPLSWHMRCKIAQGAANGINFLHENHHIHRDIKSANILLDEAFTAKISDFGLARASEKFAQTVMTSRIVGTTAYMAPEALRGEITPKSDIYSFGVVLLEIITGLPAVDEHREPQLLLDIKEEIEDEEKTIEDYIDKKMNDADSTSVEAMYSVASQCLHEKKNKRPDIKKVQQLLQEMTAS

[3] = human IRAK4 FL, 0.6 mM ATP (KM), read-out: IRAK4 DELFIA Protocol A IC50

| Structure (SMILES) | IC50 [1] | IC50 [2, 3] | IC50 [2] |
| --- | --- | --- | --- |
| COc1cc2c(OC[C@H]3NC(=O)[C@@H]4[C@@H](C(F)F)[C@@H]43)nccc2cc1C(N)=O [Example 320, 1-{[(1R,2S,5S)-6-(difluoromethyl)-4-oxo-3-azabicyclo[3.1.0]hex-2-yl]methoxy}-7-methoxyisoquinoline-6-carboxamide] | 11 nM | 0.8 nM | – |
| COc1cc2c(OC[C@H]3NC(=O)[C@@H](F)[C@H]3C3CC3)nccc2cc1C(N)=O [Example 368, 1-{[(2S,3S,4S)-3-cyclopropyl-4-fluoro-5-oxopyrrolidin-2-yl]methoxy}-7-methoxyisoquinoline-6-carboxamide] | 10 nM | 0.3 nM | – |
| CC(C)Oc1cc2c(OC[C@@H]3C[C@@H](CO)C(=O)N3)nccc2cc1C(N)=O [Example 166, 1-{[(2S,4S)-4-(hydroxymethyl)-5-oxopyrrolidin-2-yl]methoxy}-7-(propan-2-yloxy)isoquinoline-6-carboxamide] | 389 nM | 4.3 nM | – |
| CC(C)Oc1cc2c(OC[C@@H]3C[C@@H](O)C(=O)N3)nccc2cc1C(N)=O [Example 179, 1-{[(2S,4R)-4-hydroxy-5-oxopyrrolidin-2-yl]methoxy}-7-(propan-2-yloxy)isoquinoline-6-carboxamide] | 199 nM | 1.2 nM | – |
| CC[C@H]1[C@@H](COc2nccc3cc(C(N)=O)c(OC(C)C)cc23)NC(=O)C1(F)F [Example 201, 1-{[(2S,3S)-3-ethyl-4,4-difluoro-5-oxopyrrolidin-2-yl]methoxy}-7-(propan-2-yloxy)isoquinoline-6-carboxamide] | 1 nM | 0.4 nM | – |
| COc1cc2c(OC[C@@H]3CC4(CC4)C(=O)N3)nccc2cc1C(N)=O [Example 245, 7-methoxy-1-{[(6S)-4-oxo-5-azaspiro[2.4]hept-6-yl]methoxy}isoquinoline-6-carboxamide] | 529 nM | 29 nM | – |
| CC(C)Oc1cc2c(OC[C@H]3NC(=O)C(F)(F)[C@H]3C)nccc2cc1C(N)=O [Example 183, 1-{[(2S,3S)-4,4-difluoro-3-methyl-5-oxopyrrolidin-2-yl]methoxy}-7-(propan-2-yloxy)isoquinoline-6-carboxamide] | 10 nM | 0.2 nM | – |
| CC(C)Oc1cc2c(OC[C@H]3NC(=O)[C@@H](F)[C@H]3C)nccc2cc1C(N)=O [Example 187, 1-{[(2S,3S,4S)-4-fluoro-3-methyl-5-oxopyrrolidin-2-yl]methoxy}-7-(propan-2-yloxy)isoquinoline-6-carboxamide] | 40 nM | 1.1 nM | – |
| COc1cc2c(OC[C@H]3NC(=O)[C@](F)(CO)[C@H]3C)nccc2cc1C(N)=O [Example 208, 1-{[(2S,3S,4R)-4-fluoro-4-(hydroxymethyl)-3-methyl-5-oxopyrrolidin-2-yl]methoxy}-7-methoxyisoquinoline-6-carboxamide] | 87 nM | 1.1 nM | – |
| CC[C@@H]1C[C@@H](COc2nccc3cc(C(N)=O)c(OC(C)C)cc23)NC1=O [Example 136, 1-{[(2S,4R)-4-ethyl-5-oxopyrrolidin-2-yl]methoxy}-7-(propan-2-yloxy)isoquinoline-6-carboxamide] | 184 nM | 7.8 nM | – |
| CC(C)Oc1cc2c(OC[C@@H]3CCC(=O)N3)cccc2cc1C(N)=O [Example 114, 5-{[(2S)-5-oxopyrrolidin-2-yl]methoxy}-3-(propan-2-yloxy)naphthalene-2-carboxamide] | 33 nM | 0.7 nM | – |
| COc1cc2c(OC[C@H]3NC(=O)[C@@H]4[C@@H](CF)[C@@H]43)ccnc2cc1C(N)=O [Example 333, 4-{[(1R,2S,5S)-6-(fluoromethyl)-4-oxo-3-azabicyclo[3.1.0]hex-2-yl]methoxy}-6-methoxyquinoline-7-carboxamide] | 182 nM | 0.3 nM | – |
| CC(C)Oc1cc2c(OC[C@@H]3CCC(=O)N3)ncc(F)c2cc1C(N)=O [Example 168, 4-fluoro-1-{[(2S)-5-oxopyrrolidin-2-yl]methoxy}-7-(propan-2-yloxy)isoquinoline-6-carboxamide] | 1460 nM | 6.6 nM | – |
| COc1cc2c(OC[C@@H]3CCC(=O)N3)ncnc2cc1C(N)=O [Example 209, 6-methoxy-4-{[(2S)-5-oxopyrrolidin-2-yl]methoxy}quinazoline-7-carboxamide] | 9310 nM | 251 nM | – |
| COc1cc2c(OC[C@H]3NC(=O)O[C@@H]3C)cccc2cc1C(N)=O [Example 228, 3-methoxy-5-{[(4R,5R)-5-methyl-2-oxo-1,3-oxazolidin-4-yl]methoxy}naphthalene-2-carboxamide] | 118 nM | 4.2 nM | – |
| CC[C@@H]1[C@H](F)C(=O)N[C@@H]1COc1nccc2cc(C(N)=O)c(OCCOC)cc12 [Example 339, 1-{[(2S,3S,4S)-3-ethyl-4-fluoro-5-oxopyrrolidin-2-yl]methoxy}-7-(2-methoxyethoxy)isoquinoline-6-carboxamide] | 269 nM | 90 nM | – |
| CCOc1cc2c(OC[C@H]3NC(=O)[C@@H](F)[C@H]3C)ccnc2cc1C(N)=O [Example 279, 6-ethoxy-4-{[(2S,3S,4S)-4-fluoro-3-methyl-5-oxopyrrolidin-2-yl]methoxy}quinoline-7-carboxamide] | 212 nM | 1.2 nM | – |

| Structure (SMILES) | IC50 [1] | IC50 [2, 3] | IC50 [2] |
| --- | --- | --- | --- |
| COC[C@@H]1[C@H]2C(=O)N[C@H](COc3nccc4cc(C(N)=O)c(OC)cc34)[C@@H]12 [Example 313, 7-methoxy-1-{[(1S,2S,5S)-6-(methoxymethyl)-4-oxo-3-azabicyclo[3.1.0]hex-2-yl]methoxy}isoquinoline-6-carboxamide] | 1590 nM | 210 nM | – |
| COc1cc2c(OC[C@H]3NC(=O)C[C@H]3CCF)nccc2cc1C(N)=O [Example 355, 1-{[(2S,3S)-3-(2-fluoroethyl)-5-oxopyrrolidin-2-yl]methoxy}-7-methoxyisoquinoline-6-carboxamide] | 33 nM | 1.7 nM | – |
| CC[C@@H]1[C@H](F)C(=O)N[C@@H]1COc1ncc(F)c2cc(C(N)=O)c(OC)cc12 [Example 360, 1-{[(2S,3S,4S)-3-ethyl-4-fluoro-5-oxopyrrolidin-2-yl]methoxy}-4-fluoro-7-methoxyisoquinoline-6-carboxamide] | 3.9 nM | 0.1 nM | – |
| CC(C)Oc1cc2c(OC[C@@H]3CC(F)(F)C(=O)N3)nccc2cc1C(N)=O [Example 128, 1-{[(2S)-4,4-difluoro-5-oxopyrrolidin-2-yl]methoxy}-7-(propan-2-yloxy)isoquinoline-6-carboxamide] | 27 nM | 0.3 nM | – |
| COc1cc2c(OC[C@H]3NC(=O)C[C@@H]3CF)nccc2cc1C(N)=O [Example 249, 1-{[(2S,3S)-3-(fluoromethyl)-5-oxopyrrolidin-2-yl]methoxy}-7-methoxyisoquinoline-6-carboxamide] | 764 nM | 20 nM | – |
| COc1cc2c(OC[C@H]3CNC(=O)O3)nccc2cc1C(N)=O [Example 235, 7-methoxy-1-{[(5R)-2-oxo-1,3-oxazolidin-5-yl]methoxy}isoquinoline-6-carboxamide] | 1090 nM | 97 nM | – |
| COc1cc2c(OC[C@H]3NC(=O)CC34CC4)nccc2cc1C(N)=O [Example 330, 7-methoxy-1-{[(4S)-6-oxo-5-azaspiro[2.4]hept-4-yl]methoxy}isoquinoline-6-carboxamide] | 134 nM | 14 nM | – |
| COCC1C[C@@H](COc2nccc3cc(C(N)=O)c(OC(C)C)cc23)NC1=O (stereo partly drawn) [Example 127, 1-{[(2S)-4-(methoxymethyl)-5-oxopyrrolidin-2-yl]methoxy}-7-(propan-2-yloxy)isoquinoline-6-carboxamide] | 682 nM | 65 nM | – |
| COc1cc2c(OC[C@H]3NC(=O)[C@@H](F)[C@H]3C)nccc2cc1C#N [Example 272, 1-{[(2S,3S,4S)-4-fluoro-3-methyl-5-oxopyrrolidin-2-yl]methoxy}-7-methoxyisoquinoline-6-carbonitrile] | 2470 nM | 432 nM | – |
| COc1cc2c(OC[C@@H]3C[C@@](F)(CCF)C(=O)N3)ccnc2cc1C(N)=O [Example 274, 4-{[(2S,4R)-4-fluoro-4-(2-fluoroethyl)-5-oxopyrrolidin-2-yl]methoxy}-6-methoxyquinoline-7-carboxamide] | 748 nM | 2.2 nM | – |
| CC[C@H]1[C@@H](COc2nccc3cc(C(N)=O)c(OC)cc23)NC(=O)[C@@H]1O [Example 353, 1-{[(2S,3S,4R)-3-ethyl-4-hydroxy-5-oxopyrrolidin-2-yl]methoxy}-7-methoxyisoquinoline-6-carboxamide] | 20 nM | 0.5 nM | – |
| COc1cc2c(OC[C@H]3NC(=O)O[C@@H]3C)nccc2cc1C(N)=O [Example 227, 7-methoxy-1-{[(4R,5R)-5-methyl-2-oxo-1,3-oxazolidin-4-yl]methoxy}isoquinoline-6-carboxamide] | 749 nM | 19 nM | – |
| CC(C)Oc1cc2c(OCC3(CO)CCC(=O)N3)nccc2cc1C(N)=O (stereo not drawn) [Example 147, 1-{[2-(hydroxymethyl)-5-oxopyrrolidin-2-yl]methoxy}-7-(propan-2-yloxy)isoquinoline-6-carboxamide] | 1160 nM | – | 59 nM |
| COc1cc2c(OC[C@H]3NC(=O)[C@]4(F)CC[C@H]34)nccc2cc1C(N)=O [Example 322, 1-{[(1R,2S,5S)-5-fluoro-4-oxo-3-azabicyclo[3.2.0]hept-2-yl]methoxy}-7-methoxyisoquinoline-6-carboxamide] | 26 nM | 6.1 nM | – |
| COc1cc2c(OC[C@H]3NC(=O)C[C@H]3CF)nccc2cc1C(N)=O [Example 366, 1-{[(2S,3R)-3-(fluoromethyl)-5-oxopyrrolidin-2-yl]methoxy}-7-methoxyisoquinoline-6-carboxamide] | 91 nM | – | 6.1 nM |
| COc1cc2c(OC[C@H]3NC(=O)[C@H]4[C@@H]3[C@]4(C)F)nccc2cc1C(N)=O [Example 335, 1-{[(1S,2S,5R)-6-fluoro-6-methyl-4-oxo-3-azabicyclo[3.1.0]hex-2-yl]methoxy}-7-methoxyisoquinoline-6-carboxamide] | 746 nM | 4 nM | – |
